In US9458104B2 (priority 2012, dated 2016):

What was measured:
[1] = biological target: T1, RORγ (UniProt P51449); type: cell-based; settings: 293T cells, 16 h; for pIC50 (FF): firefly (FF) luciferase; for pIC50 (REN): renilla normalised (RENnorm) luciferase
T1 construct: hRORg-LBD|aa259-518|NP_005051.2; hRORgt|aa1-497|NP_001001523 (RORg, t isoform, 497aa); mRORg-LBD|aa264-516|NP_035411
T1 sequence (P51449 1-518): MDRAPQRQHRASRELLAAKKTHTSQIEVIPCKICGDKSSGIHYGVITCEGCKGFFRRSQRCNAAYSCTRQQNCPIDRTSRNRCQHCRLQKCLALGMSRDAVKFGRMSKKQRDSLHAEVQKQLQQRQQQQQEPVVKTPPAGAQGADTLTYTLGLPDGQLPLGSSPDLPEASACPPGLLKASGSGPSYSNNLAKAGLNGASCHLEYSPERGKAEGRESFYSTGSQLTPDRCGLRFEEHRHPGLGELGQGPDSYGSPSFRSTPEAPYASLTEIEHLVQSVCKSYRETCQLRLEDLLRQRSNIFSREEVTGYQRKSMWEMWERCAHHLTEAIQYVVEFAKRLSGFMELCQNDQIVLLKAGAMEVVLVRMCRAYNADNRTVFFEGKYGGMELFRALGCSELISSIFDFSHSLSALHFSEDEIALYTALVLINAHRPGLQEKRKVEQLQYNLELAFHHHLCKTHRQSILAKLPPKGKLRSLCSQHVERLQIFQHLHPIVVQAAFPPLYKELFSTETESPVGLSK
Experimental: Determination of a ligand mediated Gal4 promoter driven transactivation to quantify ligand binding to RORγ was performed as follows: DNA encoding three different RORγ. protein fragments was cloned into vector pCMV-BD (Stratagene). Expression was under control of a CMV promoter and as fusion to the DNA-binding domain of the yeast protein GAL4. Other vectors used were pFR-Luc (Stratagene) as regulated reporter plasmid. pFR-Luc contains a synthetic promoter with five tandem repeats of the yeast GAL4 binding sites that control expression of the Photinus pyralis (American firefly) luciferase gene. In order to improve experimental accuracy the plasmid pRL-CMV was cotransfected. pRL-CMV contains the constitutive CMV promoter, controlling the expression of the Renilla reniformis luciferase.
All Gal4 reporter gene assays were done in 293T cells (DSMZ (German Collection of Microorganisms and Cell Cultures), Braunschweig, Germany, ACC635) grown in Minimum Essential Medium (MEM) with Phenol Red. The medium is supplemented with 10% fetal bovine serum, 0.1 mM nonessential amino acids, 1 mM sodium pyruvate, 1% Glutamax and 100 units Penicilin/[…] per mL at 37° C. in 5% CO2.
For the assay, […] were plated per well in 96 well plates in 100 μL per well, incubated over night at 37° C. in 5% CO2. The following day, medium was discarded and the cells were transiently transfected using 20 μL per well of a OptiMEM—PEI-based transfection-reagent (Sigma-Aldrich, 408727) including the three plasmids described above. About 4 h after addition of the transfection solution, fresh Minimal Essential Medium (MEM, same composition as used for plating cells, but without serum) was added. Then compound stocks, prediluted in MEM (same composition as used for plating cells) were added (final vehicle concentration not exceeding 0.1%).
All experiments were done at least in triplicates.
It is understood that the data illustrated below may have reasonable variation depending on the specific conditions and procedures used by the person conducting the test.

[2] = biological target: T2, RORγ ligand binding domain (LBD) (Homo sapiens, UniProt P51449); assay: TR-FRET Activity Assay (ligand sensing assay, RORγ-LBD / coactivator peptide interaction); type: biochemical
T2 construct: made in house; host or cells: E. coli BL-21 (BL3), vector pDEST15
T2 sequence (P51449 269-508 limits assumed): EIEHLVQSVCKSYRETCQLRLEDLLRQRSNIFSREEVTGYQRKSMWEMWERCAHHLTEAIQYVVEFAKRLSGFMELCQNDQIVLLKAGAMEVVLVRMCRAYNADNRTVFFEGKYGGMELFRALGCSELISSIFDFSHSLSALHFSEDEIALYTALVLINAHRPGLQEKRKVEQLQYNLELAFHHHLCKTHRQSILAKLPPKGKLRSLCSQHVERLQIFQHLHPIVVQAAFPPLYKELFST
Text: This method measures the ability of putative ligands to modulate the interaction between the purified bacterial expressed RORγ ligand binding domain (LBD) and synthetic N-terminally biotinylated peptides which are derived from nuclear receptor coactivator proteins such as but not limited to SRC1 (NcoA1), SRC2 (NcoA2, TIF2), SRC3 (NcoA3), PGC1α, PGC1β, CBP, GRIP1, TRAP220, RIP140.
The ligand-binding domain (LBD) of RORγ was expressed as fusion protein with GST in […] cells using the vector pDEST15. Cells were lysed by lysozyme-treatment and sonication, and the fusion proteins purified over glutathione sepharose (Pharmacia) according to the manufacturers instructions. For screening of compounds for their influence on the RORγ-peptide interaction, the LANCE technology (Perkin Elmer) was applied. This method relies on the binding dependent energy transfer from a donor to an acceptor fluorophor attached to the binding partner of interest. For ease of handling and reduction of background from compound fluorescence LANCE technology makes use of generic fluorophore labels and time resolved detection assays were done in a final volume of 25 μL in a 384 well plate, in a Tris-based buffer system (20 mM Tris-HCl pH6.8; 60 mM KCl, 1 mM DTT; 5 mM MgCl2; 35 ng/μL BSA), containing 20-60 ng/well recombinantly expressed RORγ-LBD fused to GST, 200-600 nM N-terminally biotinylated peptide, 200 ng/well Streptavidin-xIAPC conjugate (Prozyme) and 6-10 ng/well Eu W1024-antiGST (Perkin Elmer). DMSO content of the samples was kept at 1%.
After generation of the Tris-based buffer system, the potentially RORγ modulating ligands were diluted. […] The LANCE signal was detected by a Perkin Elmer EnVision™ Multilabel Counter. The results were visualized by plotting the ratio between the emitted light at 665 nm and 615 nm. […] Ligands that promote the complex formation induce a concentration-dependent increase in time-resolved fluorescent signal.
To assess the antagonistic potential of the compounds, IC50 values were determined using a Ligand Sensing Assay based on Time-resolved Fluorescence Energy Transfer (TR-FRET) as described above. The normalised TR-FRET assay values, using the following equation: 1000*665 nm measurement value/615 nm measurement value, were transferred to the program GraphPad Prism to generate graphs and dose response curves using the following equation: […]
This is identical to the “four parameter logistic equation”. The IC50 values are calculated using this equation. […] Is is understood that the data illustrated below may have reasonable variation depending on the specific conditions and procedures used by the person conducting the test.

Compound | pIC50 (FF) [1] | pIC50 (REN) [1] | IC50 [2]
Cc1c(C(=O)NCCC(C)(C)C(=O)O)cn(-c2cc(C(C)(C)C)cc(C3(C)CC3)c2)c1CC1CCCCC1 [1/4] | 7.2 | 7.2 | 0.398 µM
Cc1c(C(=O)N[C@H]2C[C@H](C(=O)O)C2)cn(-c2cc(C(C)(C)C)cc(C3(C)CC3)c2)c1CC1CCCCC1 [1/5] | 7.6 | 8.0 | 1 µM
Cc1c(C(=O)NC2CCOCC2)cn(-c2ccc(S(=O)(=O)NC(C)(C)C)c(C(C)(C)C)c2)c1CC1CCCCC1 [4/2] | 7.3 | 7.5 | 0.631 µM
Cc1c(C(=O)NC2CCOCC2)cn(-c2ccc(S(=O)(=O)NC(C)(C)C)c(C(F)(F)F)c2)c1CC1CCCCC1 [4/3] | 7.6 | 7.6 | 0.398 µM
Cn1c(C(=O)NC2CCOCC2)cc(-c2ccc(S(=O)(=O)NC(C)(C)C)c(C(C)(C)C)c2)c1CC1CCCCC1 [8/2] | 7.1 | 7.3 | 0.398 µM
Cn1c(C(=O)NC2CCOCC2)cc(-c2cc(C(C)(C)C)cc(C3(C)CC3)c2)c1CC1CCCCC1 [8/3] | 7.1 | 7.3 | 0.501 µM
Cn1c(C(=O)N[C@H]2C[C@H](C(=O)O)C2)cc(-c2ccc(S(=O)(=O)NC(C)(C)C)c3ccccc23)c1CC1CCCCC1 [8/4] | 7.7 |  | 1 µM
Cn1c(C(=O)NCC2(O)CCS(=O)(=O)CC2)cc(-c2ccc(S(=O)(=O)NC(C)(C)C)c3ccccc23)c1CC1CCCCC1 [8/5] | 7.6 | 7.6 | 1 µM
Cn1c(C(=O)NC2CCS(=O)(=O)CC2)cc(-c2ccc(S(=O)(=O)NC(C)(C)C)c3ccccc23)c1CC1CCCCC1 [8/6] | 7.8 | 7.9 | 0.501 µM
Cn1c(C(=O)NCC(C)(C)O)cc(-c2ccc(S(=O)(=O)NC(C)(C)C)c3ccccc23)c1CC1CCCCC1 [8/7] | 7.8 | 7.9 | 0.501 µM
Cn1c(C(=O)NC23CCC(C(=O)O)(CC2)CC3)cc(-c2ccc(S(=O)(=O)NC(C)(C)C)c3ccccc23)c1CC1CCCCC1 [8/8] | 8.4 | 8.4 | 2 µM
Cn1c(C(=O)NCCC(C)(C)C(=O)O)cc(-c2cc(C(C)(C)C)cc(C3(C)CC3)c2)c1CC1CCCCC1 [8/10] | 7.4 | 7.5 | 0.794 µM
Cn1c(C(=O)N[C@H]2C[C@H](C(=O)O)C2)cc(-c2ccc(S(=O)(=O)NC(C)(C)C)c3ccccc23)c1C(=O)C1CCCCC1 [26/2] | 7.0 | 7.2 | 
Cn1c(C(=O)NCC(C)(C)O)cc(-c2ccc(S(=O)(=O)NC(C)(C)C)c3ccccc23)c1C(=O)C1CCCCC1 [26/3] | 7.5 | 7.8 | 
Cn1c(C(=O)NC2CCS(=O)(=O)CC2)cc(-c2ccc(S(=O)(=O)NC(C)(C)C)c3ccccc23)c1C(=O)C1CCCCC1 [26/4] | 7.7 | 7.8 | 
Cn1c(C(=O)NCC(C)(C)O)cc(-c2cc(C(C)(C)C)cc(C3(C)CC3)c2)c1C(=O)C1CCCCC1 [Example 26/1] | 7.8 | 7.9 | 
CC(C)(C)c1cc(-n2nc(C(=O)N[C@H]3C[C@H](C(=O)O)C3)cc2OC2CCCCC2)cc(C2(C)CC2)c1 [Example 110, trans-3-(1-(3-(tert-Butyl)-5-(1-methylcyclopropyl)phenyl)-5-(cyclohexyloxy)-1H-pyrazole-3-carboxamido)cyclobutanecarboxylic acid] | nt/6.5/6.5 | nt/6.5/6.5 | 
CC(C)(C)c1cc(-n2nc(C(=O)N[C@H]3C[C@H](C(=O)O)C3)c(Cl)c2OC2CCCCC2)cc(C2(C)CC2)c1 [Example 111, trans-3-(1-(3-(tert-Butyl)-5-(1-methylcyclopropyl)phenyl)-4-chloro-5-(cyclohexyloxy)-1H-pyrazole-3-carboxamido)cyclobutanecarboxylic acid] | 7.3 | 7.5 | 
CC(C)(C)c1cc(-n2nc(C(=O)NC3CCOCC3)c(Cl)c2OC2CCCCC2)cc(C2(C)CC2)c1 [Example 111/1] | nt/6.6/6.6 | nt/6.6/6.6 | 
CC(C)(C)NS(=O)(=O)c1ccc(-c2c(Cl)c(C(=O)NC34CCC(C(=O)O)(CC3)CC4)nn2CC2CCCCC2)c(Cl)c1Cl [Example 113, 4-(5-(4-(N-(tert-Butyl)sulfamoyl)-2,3-dichlorophenyl)-4-chloro-1-(cyclohexylmethyl)-1H-pyrazole-3-carboxamido)bicyclo[2.2.2]octane-1-carboxylic acid] | 7.5 | 7.6 | 
CC(C)(C)NS(=O)(=O)c1ccc(-n2nc(C(=O)N[C@H]3C[C@H](C(=O)O)C3)c(Cl)c2CC2CCCCC2)c2ccccc12 [Example 114, (trans)-3-(1-(4-(N-(tert-Butyl)sulfamoyl)naphthalen-1-yl)-4-chloro-5-(cyclohexyl-methyl)-1H-pyrazole-3-carboxamido)cyclobutanecarboxylic acid] | nt/6.8/6.8 | nt/6.8/6.8 | 
CC(C)(C)NS(=O)(=O)c1ccc(-n2nc(C(=O)NC3CCS(=O)(=O)CC3)c(Cl)c2CC2CCCCC2)c2ccccc12 [Example 114/1] | 6.9 | 7.0 | 
Cc1c(C(=O)NC2CCS(=O)(=O)CC2)nc(-c2ccc(S(=O)(=O)NC(C)(C)C)c3ccccc23)n1CC1CCCCC1 [Example 320, 2-(4-(N-(tert-Butyl)sulfamoyl)naphthalen-1-yl)-1-(cyclohexylmethyl)-N-(1,1-dioxidotetrahydro-2H-thiopyran-4-yl)-5-methyl-1H-imidazole-4-carboxamide] | 5.9 | 6.0 | 
